Target: PAR4 (Homo sapiens (Human), UniProt Q96RI0)
Assay: FLIPR assay in PAR4-expressing HEK293 cells (PAR4 antagonist activity, calcium mobilization)
Assay type: cell-based
Conditions: FLIPR assay as described in Example A
Description: The FLIPR assay is an exemplary in vitro assay for measuring the activity of the PAR4 antagonists of the present invention. In this assay, intracellular calcium mobilization is induced in PAR4 expressing cells by a PAR4 agonist and calcium mobilization is monitored. See, e.g., Example A.
HEK293 cells stably expressing PAR4 were generated by a standard method of transfection of human […] cDNA expression vector or by RAGE technology from Athersys Inc. (Cleveland, Ohio) and selected based on PAR4 protein expression of mRNA expression. […] These cells express endogenous PAR1 and can elicit calcium signal upon stimulation with PAR1 agonist peptide.
Counter screens for agonist activity and PAR1 antagonist activity were also performed. Briefly, HEK293 EBNA PAR4 clone 20664.1J cells were plated 24 hrs. prior to experiment in 384 well, Poly-D-Lysine coated, black, clear bottom plates (Greiner Bio-One, Monroe, N.C.). Cells were plated at 20,000 cells/well in 20 μl growth medium and incubated at 37° C. with 5% CO2 overnight. At time of assay, media was replaced with 40 μl 1× Hank's Buffered Saline Solution (HBSS) (with 10 mM HEPES) and 20 μl test compound also diluted in 1×HBSS buffer was added at various concentrations and 0.67% DMSO final concentration on the FDSS for agonist measurement. The cells were then incubated for 30 minutes at room temperature followed by addition of 20 μl of agonist peptide for antagonist measurement on the FDSS.
As indicated above, the FLIPR assay, an in vitro assay, measures the PAR4 antagonist activity of compounds tested as described in Example A.

Sequence of PAR4 (Q96RI0 18-385): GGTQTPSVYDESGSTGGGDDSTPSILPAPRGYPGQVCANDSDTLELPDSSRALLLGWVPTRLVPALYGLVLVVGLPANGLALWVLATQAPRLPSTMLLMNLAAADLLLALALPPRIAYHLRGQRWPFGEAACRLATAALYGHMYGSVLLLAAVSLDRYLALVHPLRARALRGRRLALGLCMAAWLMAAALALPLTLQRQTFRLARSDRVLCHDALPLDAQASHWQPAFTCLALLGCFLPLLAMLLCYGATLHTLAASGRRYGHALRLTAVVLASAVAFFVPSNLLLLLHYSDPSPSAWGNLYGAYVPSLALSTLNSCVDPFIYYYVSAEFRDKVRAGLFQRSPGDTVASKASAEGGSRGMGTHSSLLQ

SMILES | IC50
CCc1nn2cc(-c3cc4ccccc4o3)nc2s1 [Example 47] | 68 nM
CSc1nn2cc(-c3cc4c(C)cc(C)cc4o3)nc2s1 [Example 295] | 12.1 nM
COc1nn2cc(-c3cc4cc(C)ccc4o3)nc2s1 [Example 95] | 6.89 nM
CSc1nn2cc(-c3nc4cc(C)c(C)cc4o3)nc2s1 [Example 133] | 19.7 nM
CSc1nn2cc(-c3nc4c(OCc5cccnc5)cccc4o3)nc2s1 [Example 154] | 571 nM
COc1cc(OC)c2nc(-c3cn4nc(SC)sc4n3)sc2c1 [Example 189] | 2200 nM
CCc1nn2cc(-c3nc4ccc(OCCC(C)C)cc4o3)nc2s1 [Example 77] | 1370 nM
COc1ccc2cc(-c3cn4nc(Br)sc4n3)oc2c1 [Example 260] | 4.45 nM
CCc1nn2cc(-c3nc4ccc(OCC(C)C)cc4o3)nc2s1 [Example 85] | 392 nM
CCc1nn2cc(-c3nc4cc(F)ccc4o3)nc2s1 [Example 49] | 361 nM
CC(F)(F)c1nn2cc(-c3nc4c(Cl)cccc4s3)nc2s1 [Example 198] | 4720 nM
COc1cc(OC)c2nc(-c3cn4nc(SC)sc4n3)oc2c1 [Example 177] | 3.78 nM
COc1ccc(Br)c2cc(-c3cn4nc(Br)sc4n3)oc12 [Example 285] | 317 nM
COc1nn2cc(-c3cc4ccc(Cl)cc4o3)nc2s1 [Example 94] | 3.58 nM
CC(F)(F)c1nn2cc(-c3cc4ccccc4o3)nc2s1 [Example 207, 6-(Benzofuran-2-yl)-2-(1,1-difluoroethyl)imidazo[2,1-b][1,3,4]thiadiazole] | 127 nM
COc1cc(OCc2ccccc2)c2nc(-c3cn4nc(SC)sc4n3)oc2c1 [Example 119, 4-(Benzyloxy)-6-methoxy-2-(2-(methylthio)imidazo[2,1-b][1,3,4]thiadiazol-6-yl)benzo[d]oxazole] | 10.6 nM
Cc1ccc2oc(-c3cn4nc(C)sc4n3)nc2c1 [Example 112, 5-Methyl-2-(2-methylimidazo[2,1-b][1,3,4]thiadiazol-6-yl)benzo[d]oxazole] | 382 nM
CC(F)(F)c1nn2cc(-c3cc4ccc(Cl)cc4o3)nc2s1 [Example 237] | 28.8 nM
CC(F)(F)c1nn2cc(-c3nc4ccccc4s3)nc2s1 [Example 185, 2-(2-(1,1-Difluoroethyl)imidazo[2,1-b][1,3,4]thiadiazol-6-yl)benzo[d]thiazole] | 626 nM
CC(F)(F)c1nn2cc(-c3nc4c(N)cccc4o3)nc2s1 [Example 124, 2-(2-(1,1-Difluoroethyl)imidazo[2,1-b][1,3,4]thiadiazol-6-yl)-4-aminobenzo[d]oxazole] | 3480 nM
COc1cc(OCc2cccc(OCc3ccccc3)c2)c2cc(-c3cn4nc(SC)sc4n3)oc2c1 [Example 345] | 0.97 nM
CSc1nn2cc(-c3cc4c(OCc5ccc(F)cc5)cccc4o3)nc2s1 [Example 249] | 19.4 nM

SMILES | IC50
COc1cc2oc(-c3cn4nc(SC)sc4n3)cc2cc1Cl [Example 202, 6-(5-Chloro-6-methoxybenzofuran-2-yl)-2-(methylthio)imidazo[2,1-b][1,3,4]thiadiazole] | 3.15 nM
COc1nn2cc(-c3cc4c(OCc5ccccc5)cc(OC)c(Br)c4o3)nc2s1 [Example 226, 6-(4-(Benzyloxy)-7-bromo-6-methoxybenzofuran-2-yl)-2-methoxyimidazo[2,1-b][1,3,4]thiadiazole] | 591 nM
CCc1nn2cc(-c3nc4ccc(OCC5CCCCC5)cc4o3)nc2s1 [Example 76] | 3400 nM
CCOC(=O)COc1cccc2cc(-c3cn4nc(CC)sc4n3)oc12 [Example 62] | 587 nM
COc1nn2cc(-c3nc4ccc(OCc5ccc(C(F)(F)F)cc5)cc4o3)nc2s1 [Example 165] | 81 nM
COc1cc(OC)c2cc(-c3cn4nc(Br)sc4n3)oc2c1 [Example 294] | 19.5 nM
CCc1nn2cc(-c3cc4cc(OC)ccc4o3)nc2s1 [Example 61] | 1650 nM
CSc1nn2cc(-c3cc4c(F)cccc4o3)nc2s1 [Example 262] | 4.28 nM
COc1cc(Cl)cc(COc2cccc(COc3cc(OC)cc4oc(-c5cn6nc(OC)sc6n5)cc34)c2)c1 [Example 401] | 1.28 nM
COc1nn2cc(-c3nc4ccc(C)cc4s3)nc2s1 [Example 197] | 1050 nM
COc1nn2cc(-c3cc4cc(Cl)ccc4o3)nc2s1 [Example 91] | 19.1 nM
c1ccc2oc(-c3cn4nc(C5CC5)sc4n3)cc2c1 [Example 63] | 201 nM
CSc1nn2cc(-c3cc4cccc(Cl)c4o3)nc2s1 [Example 23] | 144 nM
CSc1nn2cc(-c3nc4c(C)cccc4o3)nc2s1 [Example 128] | 17.1 nM
COc1cc(COc2cccc(COc3cc(OC)cc4oc(-c5cn6nc(OC)sc6n5)cc34)c2)cc(OC)c1 [Example 390] | 1.6 nM
CSc1nn2cc(-c3cc4cccc(F)c4o3)nc2s1 [Example 257] | 50.2 nM
CCOc1cc(OCc2cccc(OCc3ccccc3)c2)c2cc(-c3cn4nc(SC)sc4n3)oc2c1 [Example 423] | 15.1 nM
CC(F)c1nn2cc(-c3cc4c(OCc5ccccc5)cccc4o3)nc2s1 (centres unmarked) [Example 251] | 230 nM
COc1nn2cc(-c3nc4cccc(F)c4o3)nc2s1 [Example 144] | 91.3 nM
COc1nn2cc(-c3cc4c(OCc5cccc(OCc6ccccc6)c5)cc(NC(C)=O)cc4o3)nc2s1 [Example 412, N-(4-((3-(Benzyloxy)benzyl)oxy)-2-(2-methoxyimidazo[2,1-b][1,3,4]thiadiazol-6-yl)benzofuran-6-yl)acetamide] | 72.5 nM
CCc1nn2cc(-c3nc4c(C)cccc4o3)nc2s1 [Example 42] | 462 nM
CC(F)c1nn2cc(-c3cc4ccccc4o3)nc2s1 (centres unmarked) [Example 247] | 47.9 nM

Results, then the molecule that gave them:

IC50 | SMILES
159 nM | CC(F)(F)c1nn2cc(-c3cc4cc(Cl)ccc4o3)nc2s1 [Example 236]
139 nM | CSc1nn2cc(-c3nc4c(OCc5ccccn5)cccc4o3)nc2s1 [Example 166]
13 nM | CCc1cccc2cc(-c3cn4nc(OC)sc4n3)oc12 [Example 92]
920 nM | CSc1nn2cc(-c3nc4ccc(Cl)cc4s3)nc2s1 [Example 188]
222 nM | COc1ccc2oc(-c3cn4nc(OC)sc4n3)cc2c1 [Example 93]
576 nM | CCc1nn2cc(-c3nc4ccc(OCCCc5ccccc5)cc4o3)nc2s1 [Example 78]
147 nM | CCOc1cccc2cc(-c3cn4nc(CC)sc4n3)oc12 [Example 13, 6-(7-Ethoxybenzofuran-2-yl)-2-ethylimidazo[2,1-b][1,3,4]thiadiazole]
1.82 nM | COc1nn2cc(-c3cc4c(OCc5cccc(OCc6ccccc6)c5)cccc4o3)nc2s1 [Example 413, 6-(4-((3-(Benzyloxy)benzyl)oxy)benzofuran-2-yl)-2-methoxyimidazo[2,1-b][1,3,4]thiadiazole]
135 nM | CCc1nn2cc(-c3nc4cc(Cl)ccc4o3)nc2s1 [Example 45]
2420 nM | COc1nn2cc(-c3nc4c(OC(F)(F)F)cccc4s3)nc2s1 [Example 195]
412 nM | Fc1ccc2nc(-c3cn4nc(Br)sc4n3)sc2c1 [Example 183, 2-(2-bromoimidazo[2,1-b][1,3,4]thiadiazol-6-yl)-6-fluorobenzo[d]thiazole]
2.11 nM | COc1cc(OCc2cccc(OCc3ccc(C(C)C)cc3)c2)c2cc(-c3cn4nc(OC)sc4n3)oc2c1 [Example 313]
2.47 nM | COc1cc(OCc2cccc(OCc3ccccc3Br)c2)c2cc(-c3cn4nc(OC)sc4n3)oc2c1 [Example 360]
50.5 nM | COc1cc(OC)c2cc(-c3cn4nc(C(C)(F)F)sc4n3)oc2c1 [Example 242]
191 nM | CSc1nn2cc(-c3nc4ccc(OCCF)cc4o3)nc2s1 [Example 118, 6-(2-Fluoroethoxy)-2-(2-(methylthio)imidazo[2,1-b][1,3,4]thiadiazol-6-yl)benzo[d]oxazole]
3.45 nM | COc1cc(OCc2cccc(OCc3cccc4ccccc34)c2)c2cc(-c3cn4nc(OC)sc4n3)oc2c1 [Example 310]
19.4 nM | COc1ccc2cc(-c3cn4nc(C(C)(F)F)sc4n3)oc2c1 [Example 271]
21.4 nM | CSc1nn2cc(-c3cc4c(OCc5cccc(OCc6ccccc6)c5)cc(OC(F)F)cc4o3)nc2s1 [Example 424]
213 nM | CSc1nn2cc(-c3nc4ccccc4o3)nc2s1 [Example 110, 2-(2-(Methylthio)imidazo[2,1-b][1,3,4]thiadiazol-6-yl)benzo[d]oxazole]
2.3 nM | COc1cc(OCc2cccc(OCc3ccc(F)cc3F)c2)c2cc(-c3cn4nc(OC)sc4n3)oc2c1 [Example 374]
28.2 nM | COc1nn2cc(-c3cc4cccc(C)c4o3)nc2s1 [Example 89]
114 nM | COc1cc2oc(-c3cn4nc(C(C)F)sc4n3)cc2cc1Cl (stereo in doubt) [270A]
696 nM | COc1ccc2oc(-c3cn4nc(SC)sc4n3)c(C)c2c1 [Example 24]
22 nM | COc1cc(OC[C@H]2CCCN2C(=O)c2ccc(F)cc2)c2cc(-c3cn4nc(OC)sc4n3)oc2c1 [Example 341]

— patent US9862730B2, “Imidazothiadiazole derivatives as protease activated receptor 4 (PAR4) inhibitors for treating platelet aggregation” (BRISTOL-MYERS SQUIBB COMPANY, priority 2012, dated 2018)
